Reference: patent US20230390416A1, “COMPOSITIONS FOR INDUCING TUMOR IMMUNITY AND REDUCING DRUG TOLERANCE” (The Brigham and Women's Hospital, Inc., priority 2020, published 2023)

Experiments:
[1] = clinical Cmax from published literature; used as ex vivo treatment concentration, 72 hours; cited from earlier work
SUM 159 DTCCs = experiment: MICA/B expression by flow cytometry in DTCCs under Hsp90 inhibitors; format: cell-based, human; conditions: % MICA/B positively expressing cells, vehicle 30.6 ± 0.9
Procedure: (§1) Two schedules of drugs in combination were administered to the indicated TNBC parental cell lines (A). […] Plots generated using constant ratio drug combination. […] N=11 in biological replicate. • (D) Quantification of MICA/B mean fluorescence, corrected for background by negative control. […] N≥4 in biological replicate. • (I) In vitro drug synergy was determined using the Chau-Talalay method. Two schedules of drugs in combination were administered to the indicated TNBC parental cell lines (A). […] Plots generated using constant ratio drug combination. Values falling below 1.0 combination index=synergy. • (J) In silico prediction model of drug schedule on signaling pathways. […] The first drug was administered at the beginning of the experiment (t=0), followed by the second drug after 48 h (t=48). […] GAPDH loading control.
(§2) Human MDA-MB-231, MDA-MB-468, MDA-MB-436, MCF-7, mammary carcinoma 4T-1 cells (ATCC) and SUM159 (Bioivt) were purchased in the last 10 years and cultured in 10% fetal bovine serum in DMEM or RPMI media (Invitrogen, Carlsbad CA, USA). Cell lines were validated for absence of mycoplasma prior to use, by the sourcing agency. Cells were used within 10 passages from frozen stock vials obtained from the sourcing agency.

MDA-MB-231 DTCCs [2] = experiment: as above; format: cell-based, human; conditions: % MICA/B positively expressing cells, overnight (radicicol 5 μM, FIG. 3C), vehicle 76.2 ± 1.1
Procedure: as §1, §2

MDA-MB-468 DTCCs = experiment: as above; format: cell-based, human; conditions: % MICA/B positively expressing cells, vehicle 54.7 ± 3.9
Procedure: as §1, §2

[3] = NPs exemplified in U.S. Pat. No. 10,300,143; cited from earlier work
DTCCs = experiment: Western blot of DTCCs after transient exposure to Rad-NP or radicicol free drug; format: cell-based; conditions: 4 hours exposure, wash-out; in most cases
Procedure: Protein samples were resolved by SDS-PAGE and transferred to PVDF membranes prior to incubation at 4° C. with indicated primary antibodies, mTOR and pMTOR^Ser2448, pAKT^Thr308 and AKT, Phospho-p44/42 MAPK (Erk1/2)^Thr202/Tyr204, p44/42 MAPK (Erk1/2) pPRAS40^Thr246 pSTAT3^Tyr705, STAT3, PRAS40 and β-Actin antibodies were purchased from Cell Signaling Technology, pHck^Tyr410 (Thermo Fisher Scientific) MICA/B (R&D Systems, Minneapolis, MN) and HSF-1 and HSF-1^Ser326 (abcam).

MDA-MB-468 = experiment: Fluorescent lipid uptake by flow cytometry, DTCCs vs DNCCs; format: cell-based, human; conditions: multiple TNBC cell lines using epithelial-like MDA-MB-468
MDA-MB-231 DTCCs [4] = experiment: as above; format: cell-based, human; conditions: for uptake into DTCCs vs. DNCCs: fluorescently labeled lipids, flow cytometry

Molecule: CCCCCOC(=O)Nc1nc(=O)n([C@@H]2O[C@H](C)[C@@H](O)[C@H]2O)cc1F [Capecitabine]
- Cmax (concentration used) [1]: 3900 ng/mL

Molecule: N.N.O=C([O-])C1(C(=O)[O-])CCC1.[Pt+2] [Carboplatin]
- Cmax (concentration used) [1]: 37100 ng/mL

Molecule: CC(=O)O[C@@]12CO[C@@H]1C[C@H](O)[C@@]1(C)C(=O)[C@H](O)C3=C(C)[C@@H](OC(=O)[C@H](O)[C@@H](NC(=O)OC(C)(C)C)c4ccccc4)C[C@@](O)([C@@H](OC(=O)c4ccccc4)[C@H]21)C3(C)C [Docetaxel, docetaxel]
- active form of HSF-1 (Ser326) (Hsp90; parental MDA-MB-231 cells under docetaxel drug pressure, western blot): induced the active form of HSF-1 (Ser326)
- Cmax (concentration used) [1]: 2000 ng/mL

Molecule: C=C1C[C@@H]2CC[C@@]34C[C@H]5O[C@H]6[C@@H](O3)[C@H]3O[C@H](CC[C@@H]3O[C@H]6[C@H]5O4)CC(=O)C[C@@H]3[C@@H](OC)[C@@H](C[C@H](O)CN)O[C@H]3C[C@H]3O[C@@H](CC[C@@H]1O2)C[C@@H](C)C3=C [Eribulin]
- Cmax (concentration used) [1]: 371 ng/mL

Molecule: CC(C)c1cc(-c2n[nH]c(=O)n2-c2ccc3c(ccn3C)c2)c(O)cc1O [Ganetespib, ganetespib]
- MICA (%) ± SEM (SUM 159 DTCCs): 35.4 ± 6.0%
- MICA (%) ± SEM (MDA-MB-231 DTCCs [2]): 82.5 ± 2.2%
- MICA (%) ± SEM (MDA-MB-468 DTCCs): 70.1 ± 3.0%

Molecule: Nc1ccn([C@@H]2O[C@H](CO)[C@@H](O)C2(F)F)c(=O)n1 [Gemcitabine]
- Cmax (concentration used) [1]: 22300 ng/mL

Molecule: C/C(=C\c1csc(C)n1)[C@@H]1C[C@@H]2O[C@]2(C)CCC[C@H](C)[C@H](O)[C@@H](C)C(=O)C(C)(C)[C@@H](O)CC(=O)N1 [Ixabepilone]
- Cmax (concentration used) [1]: 252 ng/mL

Molecule: Oc1cccc(-c2nc(N3CCOCC3)c3oc4ncccc4c3n2)c1 [PI-103]
- incorporation efficiency [3]: 55-65%

Molecule: Nc1ccc(-c2cccc3c(=O)cc(N4CCOCC4)oc23)cc1 [PI-828]
- incorporation efficiency [3]: ~40%

Molecule: CC(C)NCCCn1c(Sc2cc3c(cc2I)OCO3)nc2c(N)ncnc21 [PU-H71]
- MICA (%) ± SEM (SUM 159 DTCCs): 33.3 ± 4.1%
- MICA (%) ± SEM (MDA-MB-231 DTCCs [2]): 79.5 ± 0.4%
- MICA (%) ± SEM (MDA-MB-468 DTCCs): 71.9 ± 4.2%
- cytoplasmic sequestration of HSF-1 Ser326 and activation of pro-survival proteins (Hsp90; DTCCs, confocal microscopy and western blot): reversed cytoplasmic sequestration of HSF-1^Ser326 and activation of pro-survival proteins

Molecule: CC(=O)O[C@H]1C(=O)[C@@]2(C)[C@H]([C@H](OC(=O)c3ccccc3)[C@]3(O)C[C@H](OC(=O)[C@H](O)[C@@H](NC(=O)c4ccccc4)c4ccccc4)C(C)=C1C3(C)C)[C@]1(OC(C)=O)CO[C@@H]1C[C@@H]2O [Paclitaxel]
- Cmax [1]: 6.91 µM

Molecule: C[C@@H]1C[C@H]2O[C@@H]2/C=C\C=C\C(=O)Cc2c(Cl)c(O)cc(O)c2C(=O)O1 [Radicicol, radicicol]
- time of rescue of signaling disruption (DTCCs): ≤ 36 h

Molecule: CCC1=C[C@@H]2CN(C1)Cc1c([nH]c3ccccc13)[C@@](C(=O)OC)(c1cc3c(cc1OC)N(C)[C@H]1[C@@](O)(C(=O)OC)[C@H](OC(C)=O)[C@]4(CC)C=CCN5CC[C@]31[C@@H]54)C2 [Vinorelbine]
- Cmax (concentration used) [1]: 126.6 ng/mL

Molecule: CC(CCC[C@@H](C)[C@@H]1CC[C@H]2[C@@H]3CC=C4C[C@@H](O)CC[C@]4(C)[C@H]3CC[C@@]21C)N(C)c1ccc([N+](=O)[O-])c2nonc12 (some centres unmarked) [cholesterol, 25-[N-[(7-nitro-2-1,3-benzoxadiazol-4-yl)methyl]amino]-27-norcholesterol]
- specificity of binding to DTCCs (MDA-MB-468): bound with the highest degree of specificity
- uptake into DTCCs vs. DNCCs (MDA-MB-231 DTCCs [4]): significantly increased uptake into DTCCs vs. DNCCs

Molecule: CCCCCCCC/C=C\CCCCCCCC(=O)OC[C@H](COP(=O)(O)O)OC(=O)CCCCCCCCCCCNc1ccc([N+](=O)[O-])c2nonc12.N.N [phosphatidic acid (PA), 1-oleoyl-2-{12-[(7-nitro-2-1,3-benzoxadiazol-4-yl)amino]dodecanoyl}-sn-glycero-3-phosphate (ammonium salt)]
- uptake into DTCCs vs. DNCCs (MDA-MB-231 DTCCs [4]): to a lesser degree

Molecule: CCCCCCCC/C=C\CCCCCCCC(=O)OC[C@H](COP(=O)([O-])OCC[N+](C)(C)C)OC(=O)CCCCCNc1ccc([N+](=O)[O-])c2nonc12 [phosphatidylcholine (PC), 1-oleoyl-2-{6-[(7-nitro-2-1,3-benzoxadiazol-4-yl)amino]hexanoyl}-sn-glycero-3-phosphocholine]
- specificity of binding to DTCCs (MDA-MB-468): bound with the highest degree of specificity
- rate of internalization in DTCC vs DNCC (MDA-MB-231 DTCCs [4]; checked at definite time intervals): higher rate of internalization
- uptake into DTCCs vs. DNCCs (MDA-MB-231 DTCCs [4]): significantly increased uptake into DTCCs vs. DNCCs

Molecule: Pembrolizumab: clinically-approved anticancer drug
- Cmax (concentration used) [1]: 65700 ng/mL
